Source: US20140031227A1, “HERBICIDAL COMPOSITIONS COMPRISING 4-AMINO-3-CHLORO-5-FLUORO-6-(4-CHLORO-2-FLUORO-3-METHOXYPHENYL) PYRIDINE-2-CARBOXYLIC ACID OR A DERIVATIVE THEREOF AND GLYPHOSATE OR GLUFOSINATE” (DOW AGROSCIENCES LLC, priority 2012, published 2014)
Structures can show the parent of a compound that is named as a salt.

Key:
Assay type in all cases: in vivo
[1] = system: ECHCG (Echinochloa crusgalli (L.) Beauv., barnyardgrass); test: Example I postemergence foliar-applied mixtures, direct seeded rice weeds, greenhouse: ECHCG; conditions: for Visual Weed Control (%) - 21 DAA ECHCG Obs: glyphosate IPA salt (Glyphomax) alone
Experimental: (§1) Seeds or nutlets of the desired test plant species were planted in a soil matrix prepared by mixing a loam or sandy loam soil (e.g., 28.6 percent silt, 18.8 percent clay, and 52.6 percent sand, with a pH of about 5.8 and an organic matter content of about 1.8 percent) and calcareous grit in an 80 to 20 ratio. The soil matrix was contained in plastic pots with a volume of 1 quart and a surface area of 83.6 square centimeters (cm^2). […] The plants were grown for 8-22 days in a greenhouse with an approximate 14 hr photoperiod which was maintained at about 29° C. during the day and 26° C. during the night. Nutrients (Peters Excel® 15-5-15 5-Ca 2-Mg and iron chelate) were applied in the irrigation solution as needed and water was added on a regular basis. Supplemental lighting was provided with overhead metal halide 1000-Watt lamps as necessary. The plants were employed for testing when they reached the first through fourth true leaf stage.
(§2) Treatments consisted of the acid or esters of 4-amino-3-chloro-5-fluoro-6-(4-chloro-2-fluoro-3-methoxy-phenyl)pyridine-2-carboxylic acid (Compound A), each formulated as an SC (suspension concentrate), and various herbicidal components alone and in combination. Forms of compound A were applied on an acid equivalent basis.
(§3) For treatments comprised of formulated compounds, measured amounts of compounds were placed individually in 25 mL glass vials and diluted in a volume of 1.25% (v/v) Agri-Dex® crop oil concentrated to obtain 12× stock solutions. […] Application solutions were prepared by adding an appropriate amount of each stock solution (e.g., 1 mL) and diluted to the appropriate final concentrations with the addition of 10 mL of an aqueous mixture of 1.25% (v/v) crop oil concentrate so that the final spray solutions contained 1.25+/−0.05% (v/v) crop oil concentrate.
(§4) All stock solutions and applications solutions were visually inspected for compound compatibility prior to application. Spray solutions were applied to the plant material with an overhead Mandel track sprayer equipped with a 8002E nozzles calibrated to deliver 187 L/ha over an application area of 0.503 m^2 at a spray height of 18 to 20 inches (46 to 50 cm) above average plant canopy height. Control plants were sprayed in the same manner with the solvent blank.
(§5) The treated plants and control plants were placed in a greenhouse as described above and watered by sub-irrigation to prevent wash-off of the test compounds. After approximately 3 weeks, the condition of the test plants as compared with that of the untreated plants was determined visually and scored on a scale of 0 to 100 percent where 0 corresponds to no injury or growth inhibition and 100 corresponds to complete kill.
(§6) Colby's equation was used to determine the herbicidal effects expected from the mixtures (Colby, S. R. 1967. Calculation of the synergistic and antagonistic response of herbicide combinations. Weeds 15:20-22.).

[2] = system: ECHCO (Echinochloa colona (L.) Link, junglerice); test: Example I postemergence foliar-applied mixtures, direct seeded rice weeds, greenhouse: ECHCO
Experimental: as §1, §2, §3, §4, §5, §6

[3] = system: LEFCH (Leptochloa chinensis (L.) Nees, Chinese sprangletop); test: Example I postemergence foliar-applied mixtures, direct seeded rice weeds, greenhouse: LEFCH
Experimental: as §1, §2, §3, §4, §5, §6

[4] = system: IPOHE (Ipomoea hederacea Jacq., ivyleaf morningglory); test: Example I postemergence foliar-applied mixtures, direct seeded rice weeds, greenhouse: IPOHE; conditions: glyphosate IPA salt (Rodeo) alone
Experimental: as §1, §2, §3, §4, §5, §6

[5] = system: DIGSA (Digitaria sanguinalis (L.) Scop., large crabgrass); test: Example I postemergence foliar-applied mixtures, direct seeded rice weeds, greenhouse: DIGSA; conditions: glyphosate IPA salt (Durango) alone, 377 gae/ha
Experimental: as §1, §2, §3, §4, §5, §6

[6] = system: SCPMA (Schoenoplectus maritimus (L.) Lye or Bolboschoenus maritimus (L.) Palla, sea clubrush); test: Example II in-water applied mixtures, transplanted paddy rice weeds, greenhouse: SCPMA; conditions: glyphosate IPA salt (Rodeo) alone
Experimental: Weed seeds or nutlets of the desired test plant species were planted in puddled soil (mud) prepared by mixing a shredded, non-sterilized mineral soil (50.5 percent silt, 25.5 percent clay, and 24 percent sand, with a pH of about 7.6 and an organic matter content of about 2.9 percent) and water at a 1:1 volumetric ratio. The prepared mud was dispensed in 365 mL aliquots into 16-ounce (oz.) non-perforated plastic pots with a surface area of 86.59 square centimeters (cm^2) leaving a headspace of 3 centimeters (cm) in each pot. Mud was allowed to dry overnight prior to planting or transplanting. Rice seeds were planted in Sun Gro MetroMix® 306 planting mixture, which typically has a pH of 6.0 to 6.8 and an organic matter content of about 30 percent, in plastic plug trays. Seedlings at the second or third leaf stage of growth were transplanted into 840 mL of mud contained in 32-oz. non-perforated plastic pots with a surface area of 86.59 cm^2 4 days prior to herbicide application. The paddy was created by filling the headspace of the pots with 2.5 to 3 cm of water. […] The plants were grown for 4-22 days in a greenhouse with an approximate 14 hr photoperiod which was maintained at about 29′C during the day and 26° C. during the night. Nutrients were added as Osmocote® (19:6:12, N:P:K+minor nutrients) at 2 g per 16-oz. pot and 4 g per 32-oz. pot. Water was added on a regular basis to maintain the paddy flood, and supplemental lighting was provided with overhead metal halide 1000-Watt lamps as necessary. The plants were employed for testing when they reached the first through fourth true leaf stage.
as §2, with “(compound A)” for “(Compound A),”, “concentrate)” for “concentrate),”
For formulated compounds, a measured amount was placed in an individual 100 or 200 mL glass vial and was dissolved in a volume of 1.25% (v/v) Agri-Dex® crop oil concentrate to obtain application solutions.
Applications were made by injecting with a pipetter appropriate amounts of the application solutions, individually and sequentially, into the aqueous layer of the paddy. Control plants were treated in the same manner with the solvent blank. Applications were made so that all treated plant material received the same concentrations of acetone and crop oil concentrate.
as §5, with “water was added as needed” for “watered by sub-irrigation”, “maintain a paddy flood.” for “prevent wash-off of the test compounds.”, “weeks” for “weeks,”
as §6

[7] = glyphosate IPA salt (Durango) alone, 377 gae/ha
[8] = glyphosate IPA salt (Glyphomax) alone, 124.5 gae/ha
[9] = glyphosate IPA salt (Glyphomax) alone, 249 gae/ha
[10] = glyphosate IPA salt (Rodeo) alone, 105 gae/ha
[11] = glyphosate IPA salt (Rodeo) alone, 210 gae/ha

Which “Visual Weed Control (%) - 20 DAA ECHCG Obs” value [1, 7] does the source give for O=C(O)CNCP(=O)(O)O [Glyphosate isopropylamine salt, N-(phosphonomethyl)glycine, reference compound] here?
The value was 38%.

And the “Visual Weed Control (%) - 21 DAA ECHCG Obs” value ([1]; 124.5 gae/ha)?
The value was 0%.

And the “Visual Weed Control (%) - 21 DAA ECHCG Obs” value ([1]; 249 gae/ha)?
Its value is 0%.

What about the “Visual Weed Control (%) - 21 DAA ECHCO Obs” value [2, 8] of the same molecule?
The value was 10%.

What about the “Visual Weed Control (%) - 21 DAA ECHCO Obs” value [2, 9] of the same molecule?
Its value is 20%.

What about the “Visual Weed Control (%) - 21 DAA ECHCO Obs” value [2, 10] of the same molecule?
Its value is 0%.

What about the “Visual Weed Control (%) - 21 DAA ECHCO Obs” value [2, 11] of the same molecule?
The value was 0%.

And the “Visual Weed Control (%) - 20 DAA LEFCH Obs” value [3, 7]?
Its value is 88%.

And the “Visual Weed Control (%) - 21 DAA LEFCH Obs” value [3, 8]?
Its value is 0%.

What about the “Visual Weed Control (%) - 21 DAA LEFCH Obs” value [3, 9] of the same molecule?
The value was 45%.

And the “Visual Weed Control (%) - 21 DAA LEFCH Obs” value [3, 10]?
Its value is 25%.

What about the “Visual Weed Control (%) - 21 DAA LEFCH Obs” value [3, 11] of the same molecule?
Its value is 75%.

And the “Visual Weed Control (%) - 21 DAA LEFCH Obs” value ([3]; glyphosate IPA salt (Rodeo) alone, 420 gae/ha)?
Its value is 90%.

What about the “Visual Weed Control (%) - 21 DAA IPOHE Obs” value ([4]; 105 gae/ha) of the same molecule?
The value was 15%.

What about the “Visual Weed Control (%) - 21 DAA IPOHE Obs” value ([4]; 210 gae/ha) of the same molecule?
The value was 25%.

What about the “Visual Weed Control (%) - 21 DAA IPOHE Obs” value ([4]; 420 gae/ha) of the same molecule?
Its value is 55%.

And the “Visual Weed Control (%) - 20 DAA DIGSA Obs” value [5]?
Its value is 10%.

And the “Visual Weed Control (%) - 21 DAA SCPMA Obs” value ([6]; 210 gae/ha)?
Its value is 0%.

What about the “Visual Weed Control (%) - 21 DAA SCPMA Obs” value ([6]; 420 gae/ha) of the same molecule?
The value was 0%.
